Laboratory results as given in patent US11690396B2, “Electronic cigarette compositions, devices, and related methods” (ZANOPRIMA LIFESCIENCES LIMITED, priority 2018, dated 2023).
Values after ≈ are worked out from the molar mass of the structure shown.

How the values were obtained:
[1] = Solubility of carbon dioxide in nicotine solutions (Example 3, weight change); type: physicochemical
Method: Into weighed plastic 500 ml bottles containing approximately 50 g of a solution of nicotine in glycerol/propylene glycol according to Table 3 were added 4-5 g solid carbon dioxide (dry-ice), sufficient to raise the pressure to 4-5 bar. The mixtures were held under pressure for 3 days before the pressure was released, and the mixtures were then stood at ambient temperature for 48 hours and then the new weight of the solution measured. The change in weight before and after addition of the CO2 enable the amount of CO2 incorporated into the solution to be derived, as well as the molar ratio of CO2 to nicotine.

[2] = Solubility of carbon dioxide in nicotine solutions with low propylene glycol (Example 5); type: physicochemical; conditions: for Added CO2: ~50.0 g solution, average of two experiments
From the text: Using the same methodology as that of Example 3, solutions of nicotine in glycerol, nicotine, water, and propylene glycol (if present) were made as detailed in the Table 4. In Table 4, propylene glycol is referred to as “PG”. The propylene glycol, when present, originated from the addition of a tobacco flavouring composition. The tobacco flavouring composition, referred to in Table 4 as “TF”, (made up of tobacco flavouring dissolved/dispersed in propylene glycol) included propylene glycol at 65% by weight. […] For each experiment, the solution used was within 0.2 g of 50.0 g. As with Example 3, the solutions were weighed before and after the addition of the CO2, and the change in weight before and after addition of the CO2 enabled the amount of CO2 incorporated into the solution to be derived. The amount of carbon dioxide reported as being incorporated into solution is the average result achieved across two experiments.

[3] = glycerol 78.3, nicotine 5, water 8.7, TF 8, PG 5.2 wt %
[4] = glycerol 81, nicotine 2, water 9, TF 8, PG 5.2 wt %
[5] = glycerol 82.65, nicotine 5, water 4.35, TF 8, PG 5.2 wt %
[6] = glycerol 85.5, nicotine 2, water 4.5, TF 8, PG 5.2 wt %
[7] = glycerol 85.5, nicotine 5, water 9.5, TF 0, PG 0 wt %
[8] = glycerol 88.2, nicotine 2, water 9.8, TF 0, PG 0 wt %
[9] = glycerol 90.25, nicotine 5, water 4.75, TF 0, PG 0 wt %
[10] = glycerol 93.1, nicotine 2, water 4.9, TF 0, PG 0 wt %

## O=C=O [CO2, carbon dioxide]
[1]; 70:30 glycerol:propylene glycol, nicotine 0 g/kg, 4-5 bar 3 days, then 48 h ambient
  Solubility CO2: 3.8 g/kg
[1]; 70:30 glycerol:propylene glycol, nicotine 0 g/kg, 50.00 g solution, 4-5 bar 3 days, then 48 h ambient
  Added CO2: 0.19 g
[1]; 70:30 glycerol:propylene glycol, nicotine 0 g/kg, estimated density 1.19 kg/L
  Solubility CO2: 4.5 mg/mL (≈ 102 mM)
[1]; 70:30 glycerol:propylene glycol, nicotine 4 g/kg (0.4%)
  Molar ratio CO2/nicotine: 8.77 mol/mol
[1]; 70:30 glycerol:propylene glycol, nicotine 4 g/kg (0.4%), 49.96 g solution, average of two results
  Added CO2: 0.48 g
[1]; 70:30 glycerol:propylene glycol, nicotine 4 g/kg (0.4%), average of two results
  Solubility CO2: 9.5 g/kg
[1]; 70:30 glycerol:propylene glycol, nicotine 4 g/kg (0.4%), estimated density 1.19 kg/L
  Solubility CO2: 11.3 mg/mL (≈ 257 mM)
[1]; comparative: 20 g pure nicotine charged similarly with carbon dioxide
  weight increase (CO2 incorporated): did not result in any weight increase at all
[2]; [3]
  Solubility of CO2: 13 g/kg
  Added CO2: 0.66 g
[2]; glycerol 78.3, nicotine 5, water 8.7, TF 8, PG 5.2 wt %, estd density 1.21 kg/l
  Solubility of CO2: 16 mg/mL
[2]; [4]
  Solubility of CO2: 12 g/kg
  Added CO2: 0.58 g
[2]; glycerol 81, nicotine 2, water 9, TF 8, PG 5.2 wt %, estd density 1.21 kg/l
  Solubility of CO2: 14 mg/mL
[2]; [5]
  Solubility of CO2: 16 g/kg
  Added CO2: 0.79 g
[2]; glycerol 82.65, nicotine 5, water 4.35, TF 8, PG 5.2 wt %, estd density 1.22 kg/l
  Solubility of CO2: 19 mg/mL
[2]; [6]
  Solubility of CO2: 11 g/kg
  Added CO2: 0.54 g
[2]; glycerol 85.5, nicotine 2, water 4.5, TF 8, PG 5.2 wt %, estd density 1.23 kg/l
  Solubility of CO2: 13 mg/mL
[2]; [7]
  Solubility of CO2: 16 g/kg
  Added CO2: 0.82 g
[2]; glycerol 85.5, nicotine 5, water 9.5, TF 0, PG 0 wt %, estd density 1.22 kg/l
  Solubility of CO2: 20 mg/mL
[2]; [8]
  Solubility of CO2: 11 g/kg
  Added CO2: 0.56 g
[2]; glycerol 88.2, nicotine 2, water 9.8, TF 0, PG 0 wt %, estd density 1.23 kg/l
  Solubility of CO2: 14 mg/mL
[2]; [9]
  Solubility of CO2: 18 g/kg
  Added CO2: 0.91 g
[2]; glycerol 90.25, nicotine 5, water 4.75, TF 0, PG 0 wt %, estd density 1.24 kg/l
  Solubility of CO2: 23 mg/mL
[2]; [10]
  Solubility of CO2: 10 g/kg
  Added CO2: 0.51 g
[2]; glycerol 93.1, nicotine 2, water 4.9, TF 0, PG 0 wt %, estd density 1.25 kg/l
  Solubility of CO2: 13 mg/mL
